Results on 22 compounds are retold here after PMC10179475, “Flavone and Hydroxyflavones Are Ligands That Bind the Orphan Nuclear Receptor 4A1 (NR4A1)” (International Journal of Molecular Sciences, 2023).

The subject of data set [1] is ERα. Further details: method as in PMID 18095219. The following applies: cited from earlier work.
Data set [2] addresses ligand-binding domain (LBD) of NR4A1 (Homo sapiens, UniProt P22736). The data set can be described thus: Direct-binding fluorescence assay (quenching of NR4A1 tryptophan fluorescence). How it is done:
(§1) Tryptophan fluorescence spectra were obtained essentially as described. Briefly, the ligand-binding domain of NR4A1 at the final concentration of 0.5 µmol/L in 1.0 mL of phosphate-buffered saline (PBS, pH 7.4) was used for fluorescence measurements. The protein was incubated for 3 min at 25 °C in a temperature-controlled (Quantum Northwest TC125) fluorescence spectrophotometer (Varian Cary Eclipse). The fluorescence spectra were obtained using an excitation wavelength of 285 nm (excitation slit width = 5 nm) and an emission wavelength range of 300–420 nm (emission slit width = 5 nm). Aliquots (0.1 µL/aliquot) of the ligand (10 mmol ligand/L ethanol) were then added to the cuvette containing NR4A1 to reach a final ligand concentration of up to 60 µmol/L. After each aliquot of the ligand, the NR4A1/ligand solution was incubated at 25 °C for 3 min and the loss of tryptophan fluorescence was measured as described above. The addition of DMSO only (up to a final volume of 3.0 µL) had no effect on NR4A1 tryptophan fluorescence. […] Fluorescence intensity at each ligand concentration was used to correct the NR4A1 tryptophan fluorescence intensity as described.

Data set [3] addresses NR4A1 protein (ligand-binding domain: LBD) (Homo sapiens, UniProt P22736). Description: Isothermal titration calorimetry (ITC) binding assay.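 Also: ligand titrated into 20 µmol/L NR4A1 LBD in sodium phosphate buffer pH 7.4 with glycerol and ethanol, thirty injections, heat flow corrected for ligand-into-buffer dilution.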
Data set [4] deals with T1, GAL4-NR4A1 (Homo sapiens, UniProt P22736). Description: NR4A1-dependent transactivation, GAL4-NR4A1/UAS-luc, Rh30 cells. It counts as cell-based. Further details: expressed in transfected cells; host or cells: Rh30 rhabdomyosarcoma cells. The following applies: for effect on NR4A1-dependent transactivation: 50 µM.
T1 sequence (P22736 360-595 limits assumed): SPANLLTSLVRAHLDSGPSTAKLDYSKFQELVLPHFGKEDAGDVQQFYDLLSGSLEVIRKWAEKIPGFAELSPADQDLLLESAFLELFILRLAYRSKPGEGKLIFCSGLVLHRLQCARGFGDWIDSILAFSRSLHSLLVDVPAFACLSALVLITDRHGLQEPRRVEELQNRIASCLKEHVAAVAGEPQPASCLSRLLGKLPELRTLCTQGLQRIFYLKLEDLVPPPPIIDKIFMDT
The subject of data set [5] is rhabdomyosarcoma tumor. Further details: method as in PMID 34906197. The following applies: athymic mouse xenograft model; cited from earlier work.
Data set [6] addresses T1, GAL4-NR4A1. The data set can be described thus: NR4A1-dependent transactivation, GAL4-NR4A1/UAS-luc, Panc1 cells. Further details: expressed in transfected cells; host or cells: Panc1 pancreatic cancer cells; Rh30 rhabdomyosarcoma cells. It is filed as cell-based. The following applies: for effect on luciferase activity: 25 or 50 µM, p < 0.05. The protocol:
Figure 3 Hydroxyflavonoid activation of NR4A1-dependent transactivation. Panc1 cells were cotransfected with GAL4-NR4A1 and UAS-luciferase constructs, cells were treated with 25 and 50 µM hydroxyflavonoids and luciferase activity (normalized to β-galactosidase activity) was determined. Results were determined in triplicate for each concentration and are plotted as mean values ±SE. Significant induction or inhibition (p < 0.05) of luciferase activity is illustrated (*).
The UAS-luciferase reporter gene containing 5 GAL4 binding sites and the GAL4-NR4A1 chimera containing the GAL4 DNA-binding domain which linked to the ligand-binding domain (LBD) of NR4A1 were used in transactivation assays in Panc1 pancreatic cancer cells. Panc-1 cells were plated in a 24-well plate (3 × 10^4 cells/well) and grown for 24 h. Cells were then co-transfected with each construct (250 ng) and the β-gal expression construct (25 ng) using GeneJuice (Novagen, Madison, WI, USA) in accordance with the manufacture’s protocol. The medium was removed after 18 h and replaced with a 2.5% charcoal-stripped FBS-supplemented medium containing either DMSO or flavonoids (25 and 50 µM) in DMSO. After 24 h, cells were then lysed, and cell extracts were processed to measure luciferase activity. Luciferase activity was normalized by dividing the β-gal expression and each treatment was determined in three independent experiments. Data were expressed as mean ± SE and significant (p < 0.05) effects were noted.

Data set [7] has as its target T1, GAL4-NR4A1. Further details: expressed in transfected cells; host or cells: Rh30 rhabdomyosarcoma cells; method as in PMID 34906197. The note with it: Rh30 rhabdomyosarcoma cells, same constructs, cited from earlier work.
Data set [8] can be described thus: Solubility in the fluorescence assay. It is filed as physicochemical. The following applies: aqueous. How it is done: as §1
Setting [9] is: fluorescence (Trp quenching) assay, Table 1 head prints no unit, µM from text and Figure 5, read-out: KD, direct binding assay.
Where [10] appears, read: fluorescent binding assay, read-out: KD (Figure 1).

Entries after “also recorded” stand apart in the source; their conditions may differ. Like-named read-outs stand apart in the source and are kept apart here.

ligand-binding domain (LBD) of NR4A1, sequence (P22736 360-595 limits assumed): as above
NR4A1 protein (ligand-binding domain: LBD), sequence (P22736 360-595 limits assumed): as above

In the case of `O=c1c(O)c(-c2ccc(O)c(O)c2)oc2cc(O)cc(O)c12`, the ER binding result in data set [1] was “did not bind ERα”. For the same compound, the Kd in data set [2] (setting [9]) stood at 0.81 µM; in data set [3] (25 °C, read-out: ITC assay Kd1) it was 350 nM. For the same compound, the “ITC assay ΔG” value in data set [3] (25 °C) is -8.8 kcal/mol. In addition, the “effect on NR4A1-dependent transactivation” value in data set [4] is “decreased transactivation”. Moreover, the tumor growth result in data set [5] is on record as “inhibited tumor growth”. The “effect on luciferase activity” value in data set [6] is “significantly induced luciferase activity”. In data set [7] (listed as quercetin), the “effect on luciferase activity / NR4A1-dependent transactivation (previous studies)” value is on record as “decreased luciferase activity; also recorded: decreased NR4A1-dependent transactivation”.
Regarding `O=c1c(O)c(-c2ccc(O)c(O)c2)oc2cccc(O)c12` [3,5,3′,4-tetrahydroxyflavone], in data set [4], the “effect on NR4A1-dependent transactivation” value is reported as “potent inhibition”.
Take `O=c1c(O)c(-c2ccccc2)oc2cc(O)cc(O)c12` [3,5,7 -Trihydroxyflavone (Galangin), 3,5,7-Trihydroxyflavone]: the Kd in data set [2] (setting [9]) was 0.36 µM; in data set [3] (25 °C, read-out: ITC assay Kd1) it was 1 nM. In addition, the “ITC assay ΔG” value in data set [3] (25 °C) is -12.2 kcal/mol. Further, in data set [4], the “effect on NR4A1-dependent transactivation” value was “potent inhibition”. Also, in data set [6], the “effect on luciferase activity” value is given as “decreased luciferase activity”.
For `O=c1c(O)c(-c2ccc(O)cc2)oc2cc(O)cc(O)c12` [3,5,7,4′-Tetrahydroxyflavone], the Kd in data set [2] (setting [9]) was found to be 3.1 µM; in data set [3] (25 °C, read-out: ITC assay Kd1) it was 97100 nM. Also, the “ITC assay ΔG” value in data set [3] (25 °C) is -5.47 kcal/mol. Further, in data set [4], the “effect on NR4A1-dependent transactivation” value was “decreased transactivation”. In addition, the tumor growth result in data set [5] is reported as “inhibited tumor growth”. For the same compound, the “effect on luciferase activity / NR4A1-dependent transactivation (previous studies)” value in data set [7] (listed as kaempferol) is “decreased luciferase activity; also recorded: decreased NR4A1-dependent transactivation”.
Regarding `O=c1c(O)c(-c2ccccc2)oc2ccc(O)cc12` [3,6-Dihydroxyflavone], the Kd is 0.66 µM in data set [2] (setting [9]) and 444000 nM in data set [3] (25 °C, read-out: ITC assay Kd1). In addition, the “ITC assay ΔG” value in data set [3] (25 °C) was -4.57 kcal/mol. For the same compound, the “effect on NR4A1-dependent transactivation” value in data set [4] is “potent inhibition”.
With `O=c1c(O)c(-c2ccccc2)oc2cc(O)ccc12` [3,7-Dihydroxyflavone], the Kd in data set [2] (setting [9]) is 2.8 µM; in data set [3] (25 °C, read-out: ITC assay Kd1) it was 180 nM. Besides, the “ITC assay ΔG” value in data set [3] (25 °C) was -9.2 kcal/mol. Further, the “effect on NR4A1-dependent transactivation” value in data set [4] is on record as “potent inhibition”.
For `O=c1c(O)c(-c2ccccc2)oc2ccccc12` [3-Hydroxyflavone], in data set [3] (25 °C), the “ITC assay ΔG” value was -10.4 kcal/mol. For the same compound, the Kd in data set [3] (25 °C, read-out: ITC assay Kd1) came to 22.5 nM. The solubility result in data set [8] is reported as “insoluble”; in data set [8] (listed as 3-hydroxyflavone), “aqueous insolubility”.
As for `O=c1cc(-c2ccc(O)c(O)c2)oc2ccccc12` [3′,4′-Dihydroxyflavone], the Kd is 0.96 µM in data set [2] (setting [9]) and 9500 nM in data set [3] (25 °C, read-out: ITC assay Kd1). In data set [3] (25 °C), the “ITC assay ΔG” value is -6.86 kcal/mol. For the same compound, the “induction of luciferase activity” value in data set [4] and in data set [6] was under 2.4 fold throughout.
With `O=c1cc(-c2cccc(O)c2)oc2ccccc12` [3′-Hydroxyflavone], the Kd in data set [2] (setting [9]) turned out to be 45.8 µM; in data set [2] (setting [10]), 45.8 µM; in data set [3] (25 °C, read-out: ITC assay Kd1), 330 nM. Further, the “ITC assay ΔG” value in data set [3] (25 °C) was -8.84 kcal/mol.
With `O=c1cc(-c2ccc(O)cc2)oc2ccccc12` [4′-Hydroxyflavone], the Kd is 13 µM in data set [2] (setting [9]) and 150 nM in data set [3] (25 °C, read-out: ITC assay Kd1). In addition, the “ITC assay ΔG” value in data set [3] (25 °C) is -9.42 kcal/mol. The “effect on NR4A1-dependent transactivation” value in data set [4] is reported as “potent inhibition”. For the same compound, the “effect on luciferase activity” value in data set [6] is “significantly induced luciferase activity”.
For the compound `O=c1cc(-c2ccccc2)oc2cc(O)c(O)c(O)c12` [5,6,7 -Trihydroxyflavone (Baicalein), 5,6,7-Trihydroxyflavone], the Kd in data set [2] (setting [9]) was found to be 1.85 µM; in data set [3] (25 °C, read-out: ITC assay Kd1), 130 nM. The “ITC assay ΔG” value in data set [3] (25 °C) is -9.42 kcal/mol. Moreover, in data set [6], the “effect on luciferase activity” value is “significantly induced luciferase activity”.
On to `O=c1cc(-c2ccccc2)oc2cc(O)cc(O)c12` [5,7 Dihydroxyflavone], for which the Kd in data set [2] (setting [9]) was determined as 11.3 µM; in data set [3] (25 °C, read-out: ITC assay Kd1), 1 nM. Besides, in data set [3] (25 °C), the “ITC assay ΔG” value was -12.3 kcal/mol.
Take `O=c1cc(-c2ccc(O)c(O)c2)oc2cc(O)cc(O)c12` [5,7,3′4′-Tetrahydroxyflavone (Luteolin), 5,7,3′4′-Tetrahydroxyflavone]: the Kd in data set [2] (setting [9]) came out at 5.1 µM; in data set [3] (25 °C, read-out: ITC assay Kd1), 19 nM. The “ITC assay ΔG” value in data set [3] (25 °C) was -10.5 kcal/mol. The “effect on luciferase activity” value in data set [6] was “significantly induced luciferase activity”.
As for `O=c1cc(-c2ccc(O)cc2)oc2cc(O)cc(O)c12` [5,7,4′-Trihydroxyflavone (Apigenin), 5,7,4′-Trihydroxyflavone], the Kd is 1.77 µM in data set [2] (setting [9]); 0.08 µM in data set [2] (setting [10]); 570 nM in data set [3] (25 °C, read-out: ITC assay Kd1). Also, the “ITC assay ΔG” value in data set [3] (25 °C) was -8.53 kcal/mol. In data set [4], the “effect on NR4A1-dependent transactivation” value was “decreased transactivation”.
Consider `O=c1cc(-c2ccccc2)oc2cccc(O)c12` [5-Hydroxyflavone], for which the Kd came to 1.4 µM in data set [2] (setting [9]) and 18000 nM in data set [3] (25 °C, read-out: ITC assay Kd1). In addition, the “ITC assay ΔG” value in data set [3] (25 °C) was -6.45 kcal/mol.
As to `O=c1cc(-c2ccccc2)oc2ccc(O)cc12` [6-Hydroxyflavone], the Kd in data set [2] (setting [9]) came to 12.5 µM; in data set [3] (25 °C, read-out: ITC assay Kd1) it was 32 nM. Also, the “ITC assay ΔG” value in data set [3] (25 °C) is -10.3 kcal/mol. Also, the “effect on NR4A1-dependent transactivation” value in data set [4] is reported as “decreased transactivation”. Moreover, the “effect on luciferase activity” value in data set [6] is on record as “significantly induced luciferase activity”.
Consider `O=c1cc(-c2cccc(O)c2)oc2cc(O)ccc12` [7,3′-Dihydroxyflavone], for which the Kd in data set [2] (setting [9]) stood at 21.4 µM; in data set [3] (25 °C, read-out: ITC assay Kd1), 170 nM. For the same compound, in data set [3] (25 °C), the “ITC assay ΔG” value is -9.25 kcal/mol.
Turning to `O=c1cc(-c2ccc(O)cc2)oc2cc(O)ccc12` [7,4’-Dihydroxyflavone], the Kd in data set [2] (setting [9]) is 9.1 µM; in data set [3] (25 °C, read-out: ITC assay Kd1), 490 nM. Further, the “ITC assay ΔG” value in data set [3] (25 °C) is -8.63 kcal/mol.
In the case of `O=c1cc(-c2ccccc2)oc2c(O)c(O)ccc12` [7,8-Dihydroxyflavone], the Kd is 17.6 µM in data set [2] (setting [9]) and 42 nM in data set [3] (25 °C, read-out: ITC assay Kd1). In addition, the “ITC assay ΔG” value in data set [3] (25 °C) was -10.1 kcal/mol.
For the compound `O=c1cc(-c2ccccc2)oc2cc(O)ccc12` [7-Hydroxyflavone], the Kd in data set [2] (setting [9]) is 7.4 µM; in data set [3], 42 nM. The “ITC assay ΔG” value in data set [3] (25 °C) is -10.1 kcal/mol. The “induction of luciferase activity” value in data set [4] and in data set [6] was under 2.4 fold each time. Moreover, in data set [6], the “effect on luciferase activity” value is given as “significantly induced luciferase activity”.
With `Clc1cc(Cl)cc(C(c2c[nH]c3ccccc23)c2c[nH]c3ccccc23)c1` [DIM-3,5-CI2, 1,1-bis(3′-indolyl)-1-(3,5-dichlorophenyl)methane, reference compound], the “effect on NR4A1-dependent transactivation” value in data set [4] is listed as “decreased transactivation”.
Take `O=c1cc(-c2ccccc2)oc2ccccc12` [Flavone]: the Kd in data set [2] (setting [9]) amounted to 3.4 µM; in data set [3] (25 °C, read-out: ITC assay Kd1) it was 75 nM. Moreover, the “ITC assay ΔG” value in data set [3] (25 °C) was -9.73 kcal/mol.
